Measurements from US20170015555A1, “LONG-TERM PRESERVATION AND NOVEL APPLICATION OF CHLOROUS ACID AQUEOUS SOLUTION FORMULATION” (priority 2013, published 2017).

Assays:
Assay type in all cases: cell-based
[1] = system: Bacillus cereus NBRC15305; test: Sterilizing effect on floor surface after wiping off imitation vomit, rubber mattress; details: 1000 ppm available chlorine
Description: (§1) 1) Chlorous acid aqueous solution formulation (see Example 1: Table 11) Treatment sheet (material: 100% cotton): (about 27×40 cm) *Impregnated at a ratio of weight of treatment sheet (g): amount of liquid (ml)=1:3 2) Imitation vomit Miso solution: adjusted to pH of 2 with hydrochloric acid 3) Test Microbes that were Used E. coli: Escherichia coli IF03927 Staphylococcus aureus: Staphylococcus aureus IF0 12732 Thermoduric Microbes (Bacillus cereus): Bacillus cereus NBRC15305 Microbes of the genus Salmonella: Salmonella Enteritidis IF03313 Enterohemorrhagic Escherichia coli O157: Escherichia coli O157 Enterohemorrhagic Escherichia coli O111: Escherichia coli O111 Enterohemorrhagic Escherichia coli O26: Escherichia coli O26
(§2) (1) Imitation vomit was spread in an area about the size of an A4 sheet. (2) 5 agent solution-containing treatment sheets were laid thereon. (3) The imitation vomit was wiped off. (4) A cotton swab was soaked with sterile saline. A portion where imitation vomit was spread was scrubbed with the cotton swab to collect microbes remaining on the floor. After suspending in saline, the solution was spread on a petri dish and cultured. The number of each of the microbes was measured. (5) Test operations 3 and 4 were repeated a total of 7 times (repeated until the imitation vomit could be removed completely).

[2] = system: Enterohemorrhagic Escherichia coli O157; test: as above; details: 1000 ppm available chlorine
Description: as §1, §2

[3] = system: Enterohemorrhagic Escherichia coli O26; test: as above; details: 1000 ppm available chlorine
Description: as §1, §2

[4] = system: Microbes of the genus Salmonella: Salmonella Enteritidis IF03313; test: as above; details: 1000 ppm available chlorine
Description: as §1, §2

[5] = system: Bacillus cereus NBRC15305; test: Sterilizing effect on floor surface after wiping off imitation vomit, tatami mattress; details: 1000 ppm available chlorine
Description: as §1
as §2, with “5 dry” for “5 agent solution-containing treatment”, “(3) An agent solution was poured on the dry sheets to wipe off the” for “(3) The”, “imitation vomit.” for “imitation vomit was wiped off.”

[6] = system: E. coli: Escherichia coli IF03927; test: as above; details: 1000 ppm available chlorine
Description: as §1
as §2, with “5 dry” for “5 agent solution-containing treatment”, “(3) An agent solution was poured on the dry sheets to wipe off the” for “(3) The”, “imitation vomit.” for “imitation vomit was wiped off.”

[7] = system: Enterohemorrhagic Escherichia coli O111; test: as above; details: 1000 ppm
Description: as §1
as §2, with “5 dry” for “5 agent solution-containing treatment”, “(3) An agent solution was poured on the dry sheets to wipe off the” for “(3) The”, “imitation vomit.” for “imitation vomit was wiped off.”

[8] = system: Enterohemorrhagic Escherichia coli O157; test: as above; details: 1000 ppm available chlorine
Description: as §1
as §2, with “5 dry” for “5 agent solution-containing treatment”, “(3) An agent solution was poured on the dry sheets to wipe off the” for “(3) The”, “imitation vomit.” for “imitation vomit was wiped off.”

[9] = system: Enterohemorrhagic Escherichia coli O26; test: as above; details: 1000 ppm available chlorine
Description: as §1
as §2, with “5 dry” for “5 agent solution-containing treatment”, “(3) An agent solution was poured on the dry sheets to wipe off the” for “(3) The”, “imitation vomit.” for “imitation vomit was wiped off.”

[10] = system: Microbes of the genus Salmonella: Salmonella Enteritidis IF03313; test: as above; details: 1000 ppm available chlorine
Description: as §1
as §2, with “5 dry” for “5 agent solution-containing treatment”, “(3) An agent solution was poured on the dry sheets to wipe off the” for “(3) The”, “imitation vomit.” for “imitation vomit was wiped off.”

[11] = system: Staphylococcus aureus IF0 12732; test: as above; details: 1000 ppm available chlorine
Description: as §1
as §2, with “5 dry” for “5 agent solution-containing treatment”, “(3) An agent solution was poured on the dry sheets to wipe off the” for “(3) The”, “imitation vomit.” for “imitation vomit was wiped off.”

## OCl [Sodium Hypochlorite, sodium hypochlorite]
[1]; stored at 25° C. Day 0
  microbes remaining, wiped 1 Time: <10
  microbes remaining, wiped 2 Times: <10
  microbes remaining, wiped 3 Times: <10
[1]; stored at 25° C. Day 7
  microbes remaining, wiped 1 Time: 2.1 × 10^3
  microbes remaining, wiped 2 Times: 6.5 × 10^2
  microbes remaining, wiped 3 Times: 1.8 × 10^2
[2]; stored at 25° C. Day 0
  microbes remaining, wiped 1 Time: <10
  microbes remaining, wiped 2 Times: <10
  microbes remaining, wiped 3 Times: <10
[2]; stored at 25° C. Day 7
  microbes remaining, wiped 1 Time: 4.2 × 10^3
  microbes remaining, wiped 2 Times: 1.2 × 10^3
  microbes remaining, wiped 3 Times: 1.1 × 10^2
[3]; stored at 25° C. Day 0
  microbes remaining, wiped 1 Time: <10
  microbes remaining, wiped 2 Times: <10
  microbes remaining, wiped 3 Times: <10
[3]; stored at 25° C. Day 7
  microbes remaining, wiped 1 Time: 3.2 × 10^3
  microbes remaining, wiped 2 Times: 1.0 × 10^3
  microbes remaining, wiped 3 Times: 3.0 × 10^2
[4]; stored at 25° C. Day 0
  microbes remaining, wiped 1 Time: <10
  microbes remaining, wiped 2 Times: <10
  microbes remaining, wiped 3 Times: <10
[4]; stored at 25° C. Day 7
  microbes remaining, wiped 1 Time: 1.1 × 10^3
  microbes remaining, wiped 2 Times: 3.6 × 10^2
[5]; stored at 25° C. Day 0
  microbes remaining, wiped 1 Time: <10
  microbes remaining, wiped 2 Times: <10
  microbes remaining, wiped 3 Times: <10
[5]; stored at 25° C. Day 7
  microbes remaining, wiped 1 Time: <10
  microbes remaining, wiped 2 Times: <10
  microbes remaining, wiped 3 Times: <10
[6]; stored at 25° C. Day 0
  microbes remaining, wiped 1 Time: <10
  microbes remaining, wiped 2 Times: <10
  microbes remaining, wiped 3 Times: <10
[6]; stored at 25° C. Day 7
  microbes remaining, wiped 1 Time: <10
  microbes remaining, wiped 2 Times: <10
  microbes remaining, wiped 3 Times: <10
[7]; stored at 25° C. Day 0
  Number of Times Wiped 1 Time (remaining microbes): <10
  Number of Times Wiped 2 Times (remaining microbes): <10
  Number of Times Wiped 3 Times (remaining microbes): <10
[7]; stored at 25° C. Day 7
  Number of Times Wiped 1 Time (remaining microbes): <10
  Number of Times Wiped 2 Times (remaining microbes): <10
  Number of Times Wiped 3 Times (remaining microbes): <10
[8]; stored at 25° C. Day 0
  Number of Times Wiped 1 Time (remaining microbes): <10
  Number of Times Wiped 2 Times (remaining microbes): <10
  Number of Times Wiped 3 Times (remaining microbes): <10
[8]; stored at 25° C. Day 7
  Number of Times Wiped 1 Time (remaining microbes): <10
  Number of Times Wiped 2 Times (remaining microbes): <10
  Number of Times Wiped 3 Times (remaining microbes): <10
[9]; stored at 25° C. Day 0
  Number of Times Wiped 1 Time (remaining microbes): <10
  Number of Times Wiped 2 Times (remaining microbes): <10
  Number of Times Wiped 3 Times (remaining microbes): <10
[9]; stored at 25° C. Day 7
  Number of Times Wiped 1 Time (remaining microbes): 8.8 × 10^3
  Number of Times Wiped 2 Times (remaining microbes): 4.9 × 10^3
  Number of Times Wiped 3 Times (remaining microbes): 3.0 × 10^3
[10]; stored at 25° C. Day 0
  microbes remaining, wiped 1 Time: <10
  microbes remaining, wiped 2 Times: <10
  microbes remaining, wiped 3 Times: <10
[10]; stored at 25° C. Day 7
  microbes remaining, wiped 1 Time: 1.5 × 10^3
  microbes remaining, wiped 2 Times: 7.7 × 10^2
  microbes remaining, wiped 3 Times: 1.8 × 10^2
[11]; stored at 25° C. Day 0
  microbes remaining, wiped 1 Time: <10
  microbes remaining, wiped 2 Times: <10
  microbes remaining, wiped 3 Times: <10
[11]; stored at 25° C. Day 7
  microbes remaining, wiped 1 Time: <10
  microbes remaining, wiped 2 Times: <10
  microbes remaining, wiped 3 Times: <10
